Test results published in patent US20040229268A1, “Method and kit for identifying antibiotic-resistant microorganisms” (priority 2003, published 2004).

What was measured:
[1] = tested on: VanA and VanB gene sequences; test: HPA for detecting VanA and VanB gene sequences (Example 12); assay type: binding, E. faecalis, E. faecium
Description: Double-stranded plasmids harboring inserts of either VanA or VanB gene sequences were prepared for use as control templates. More specifically, VanA gene sequences were amplified in a PCR protocol using primers having the sequences of VanA(+)464 Kpn and VanA(−)1325Bam. Similarly, VanB gene sequences were amplified using primers having the sequences of VanB(+)084 Kpn and VanB(−)1006Bam. Genomic DNA samples from bacteria known to have VanA or VanB genotypes were used as templates in the amplification reactions. Blunt-ended amplification products containing VanA gene sequences were ligated into a pPCR-[…] SK(+) (Stratagene; La Jolla, Calif.) plasmid cloning vector, and propagated in E. coli host bacteria using procedures that will be familiar to those having an ordinary level of skill in the art. Double-stranded amplification products containing VanB gene sequences were first digested with KpnI and BamHI, and then ligated into a similarly cleaved pBLUESCRIPT-II KS(+) (Stratagene; La Jolla, Calif.) plasmid cloning vector. Isolated double-stranded plasmid DNA served as controls in hybridization assays.
2′-deoxy probes having the sequences presented under Example 10 were prepared by standard phosphoramidite synthesis. AE labeling of the probes also was performed using standard procedures, as described herein and as will be familiar to those having an ordinary level of skill in the art. Samples of four different cultured VRE bacteria described under the previous Example were lysed essentially as described above. RNA in the samples was hydrolyzed and DNA denatured by incubation of the lysate with hydroxide at elevated temperature. In parallel procedures, samples of two plasmid clones harboring either the VanA or VanB inserts (as described under the previous Example) were also treated to denature DNA. All samples were neutralized by addition of a buffered HCl reagent. AE-labeled probes were added to each of the samples and then hybridized at 55-60° C. for 45 minutes to permit formation of complementary probe:target duplexes. The pan-bacterial probe (Probe Reagent 1, GEN-PROBE® MTC-NI Kit, catalog no. 4573) described under Example 2 was used as a positive control to confirm the presence of bacterial nucleic acid targets. Trials containing labeled probe in the absence of an added target (i.e., “probe alone”) served as negative controls. The AE label joined to probe molecules that remained single-stranded following the hybridization procedure were destroyed by treatment under mild alkaline conditions, and the extent of specific hybrid formation quantified by luminometry as described in the foregoing Examples.

[2] = tested on: mecA gene; Staphylococcus spp. and S. aureus ribosomal nucleic acids; test: HPA probe panel on clinical and ATCC isolates (Examples 8-9); assay type: binding
Description: Oxacillin MIC results were provided by an outside laboratory. The GP Probe results were determined as described in Example 8.

CCAAGCACCCGATATACTTTCTTTGCC (DNA, backbone and methylation of C not given here; further chemistry not fully specified; listed as Enterococcus faecalis) [VanB(−)1006]
Probe Hybridization (in RLU) ([1]; ATCC 51299 (VanB), E. faecalis lysate): 8335 RLU
Probe Hybridization (in RLU) ([1]; ATCC 51575 (VanB), E. faecalis lysate): 6300 RLU
Probe Hybridization (in RLU) ([1]; ATCC 700221 (VanA), E. faecium lysate): 1485 RLU
Probe Hybridization (in RLU) ([1]; ATCC 700802 (VanB), E. faecalis lysate): 9116 RLU
Probe Hybridization (in RLU) ([1]; Probe Alone (no added target)): 586 RLU
Probe Hybridization (in RLU) ([1]; VanA clone (plasmid)): 1708 RLU
Probe Hybridization (in RLU) ([1]; VanB clone (plasmid)): 27493 RLU
hybridization signal (in words) ([1]; samples containing nucleic acids from VanB-positive VRE bacteria): very strong signals

CCACTCAAGAGAGACAACATTTTCGACTAC (AE label linker 22/23, with helper oligonucleotides, chemistry not fully specified; listed as Staphylococcus aureus) [S. aureus]
HPA Results (# positive for indicated probes) ([2]; ATCC MRSA, 1 isolate, Oxacillin MIC 16 μg/ml): 1
HPA Results (# positive for indicated probes) ([2]; ATCC MSSA, 1 isolate, Oxacillin MIC 1 μg/ml): 1
HPA Results (# positive for indicated probes) ([2]; ATCC MSSA, 4 isolates, Oxacillin MIC 0.5 μg/ml): 4
HPA Results (# positive for indicated probes) ([2]; ATCC MSSA, 6 isolates, Oxacillin MIC ≦0.25 μg/ml): 6
HPA Results (# positive for indicated probes) ([2]; Clinical MRSA, 8 isolates, Oxacillin MIC 16 μg/ml): 8
HPA Results (# positive for indicated probes) ([2]; Clinical MRSA, 107 isolates, Oxacillin MIC >16 μg/ml): 107
HPA Results (# positive for indicated probes) ([2]; Clinical MSSA, 28 isolates, Oxacillin MIC 0.5 μg/ml): 28
HPA Results (# positive for indicated probes) ([2]; Clinical MSSA, 99 isolates, Oxacillin MIC ≦0.25 μg/ml): 99
HPA Results (RLU) ([2]; GP21 (S. aureus, mecA(−), MSSA)): 351348 RLU
HPA Results (RLU) ([2]; GP22 (CoNS, mecA(+))): 7637 RLU
HPA Results (RLU) ([2]; GP23 (S. aureus, mecA(−))): 280428 RLU
HPA Results (RLU) ([2]; GP24 (S. aureus, mecA(+))): 274112 RLU
HPA Results (RLU) ([2]; GP25 (S. aureus, mecA(+))): 408938 RLU
HPA Results (RLU) ([2]; GP26 (S. aureus, mecA(−))): 241597 RLU
HPA Results (RLU) ([2]; GP27 (CoNS, mecA(−))): 7057 RLU
HPA Results (RLU) ([2]; GP28 (S. aureus, mecA(−))): 195759 RLU
HPA Results (RLU) ([2]; GP29 (S. aureus, mecA(+))): 416372 RLU
HPA Results (RLU) ([2]; GP30 (S. aureus, mecA(−))): 399498 RLU
HPA Results (RLU) ([2]; GP31 (S. aureus, mecA(+))): 332750 RLU
HPA Results (RLU) ([2]; GP32 (S. aureus, mecA(−))): 414709 RLU
HPA Results (RLU) ([2]; GP33 (S. aureus, mecA(+))): 154183 RLU
HPA Results (RLU) ([2]; GP34 (S. aureus, mecA(−))): 497890 RLU
HPA Results (RLU) ([2]; GP35 (S. aureus, mecA(+))): 484580 RLU
HPA Results (RLU) ([2]; GP36 (S. aureus, mecA(−))): 356243 RLU
HPA Results (RLU) ([2]; GP37 (S. aureus, mecA(+))): 373448 RLU
HPA Results (RLU) ([2]; GP38 (S. aureus, mecA(+))): 367728 RLU
HPA Results (RLU) ([2]; GP39 (S. aureus, mecA(−))): 268665 RLU
HPA Results (RLU) ([2]; GP40 (S. aureus, mecA(−))): 283200 RLU
HPA Results (RLU) ([2]; Neg Control (Hybridization Buffer)): 3472 RLU
HPA Results (RLU) ([2]; Pos Control GP1217 (S. aureus, mecA(+), MRSA)): 162795 RLU
HPA Results (# positive for indicated probes) ([2]; S. epidermidis, 1 isolate, Oxacillin MIC >16 μg/ml): 0
HPA Results (# positive for indicated probes) ([2]; S. epidermidis, 2 isolates, Oxacillin MIC ≦0.25 μg/ml): 0
HPA Results (# positive for indicated probes) ([2]; S. hemoliticus, 1 isolate, Oxacillin MIC ≦0.25 μg/ml): 0
HPA Results (# positive for indicated probes) ([2]; S. hominis, 1 isolate, Oxacillin MIC ≦0.25 μg/ml): 0
HPA Results (# positive for indicated probes) ([2]; S. hyicus-hyicus, 1 isolate, Oxacillin MIC ≦0.25 μg/ml): 0
HPA Results (# positive for indicated probes) ([2]; S. intermedius, 1 isolate, Oxacillin MIC ≦0.25 μg/ml): 0
HPA Results (# positive for indicated probes) ([2]; S. saprophyticus, 1 isolate, Oxacillin MIC 0.5 μg/ml): 0
HPA Results (# positive for indicated probes) ([2]; S. simulans, 1 isolate, Oxacillin MIC ≦0.25 μg/ml): 0
HPA Results (# positive for indicated probes) ([2]; S. warneri, 1 isolate, Oxacillin MIC ≦0.25 μg/ml): 0
